Source: ChEMBL document CHEMBL5500354, “Novel selective agents for the degradation of AR/AR-V7 to treat advanced prostate cancer” (Eur J Med Chem, 2024)

Tests used:
Androgen receptor [1] = molecular target: T1, Androgen receptor (Homo sapiens, UniProt P10275); assay: Binding affinity to human androgen receptor transfected in HEK293 cell membrane co-transfected with ARC1 assessed as inhibition of [3H]-methyltrienolone binding to receptor incubated for 30 mins by competitive ligand binding assay
T1 sequence (P10275 whole entry): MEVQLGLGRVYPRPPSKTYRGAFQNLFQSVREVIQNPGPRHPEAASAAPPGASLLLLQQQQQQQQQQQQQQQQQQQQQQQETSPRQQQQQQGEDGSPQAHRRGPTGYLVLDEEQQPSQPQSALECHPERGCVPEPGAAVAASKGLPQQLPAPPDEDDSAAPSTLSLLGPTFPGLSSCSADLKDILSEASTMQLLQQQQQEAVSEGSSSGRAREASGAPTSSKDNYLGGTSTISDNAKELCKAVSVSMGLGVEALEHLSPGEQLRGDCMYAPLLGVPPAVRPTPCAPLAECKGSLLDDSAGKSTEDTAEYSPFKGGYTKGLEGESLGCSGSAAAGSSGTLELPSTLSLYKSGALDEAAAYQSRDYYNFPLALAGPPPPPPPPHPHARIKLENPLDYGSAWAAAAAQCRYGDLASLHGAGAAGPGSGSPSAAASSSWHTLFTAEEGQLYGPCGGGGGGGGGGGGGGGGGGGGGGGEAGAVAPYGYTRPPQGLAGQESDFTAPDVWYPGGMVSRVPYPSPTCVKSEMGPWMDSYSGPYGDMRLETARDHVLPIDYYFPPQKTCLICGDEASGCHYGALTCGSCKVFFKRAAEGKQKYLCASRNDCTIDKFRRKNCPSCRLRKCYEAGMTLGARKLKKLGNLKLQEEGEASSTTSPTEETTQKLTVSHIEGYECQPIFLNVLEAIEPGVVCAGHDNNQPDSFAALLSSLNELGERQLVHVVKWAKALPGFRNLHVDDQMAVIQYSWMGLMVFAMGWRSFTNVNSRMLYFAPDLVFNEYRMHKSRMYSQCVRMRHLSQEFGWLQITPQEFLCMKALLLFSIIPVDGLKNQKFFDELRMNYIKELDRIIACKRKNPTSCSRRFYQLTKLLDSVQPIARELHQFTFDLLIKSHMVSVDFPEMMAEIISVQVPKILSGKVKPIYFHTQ

LNCaP [2] = assay: Antiproliferative activity against human LNCaP cells assessed as reduction in cell viability incubated for 24 hrs by CCK8 assay
CWR22R [3] = assay: Antiproliferative activity against human 22Rv1 cells assessed as reduction in cell viability incubated for 24 hrs by CCK8 assay; settings: 22Rv1, 24 h
Androgen receptor [4] = molecular target: T1, Androgen receptor
Description: Antagonist activity at androgen receptor (unknown origin) transfected in HEK293T cells co-transfected with luciferase reporter gene assessed as inhibition of transcriptional activity incubated for 18 to 20 hrs by luminescence plate reader analysis

LNCaP [5] = assay: cells; settings: Homo sapiens, 24 h, read-out: INH
Description: Antiproliferative activity against human LNCaP cells assessed as inhibition rate at 10 uM incubated for 24 hrs by CCK8 assay relative to control

CWR22R [6] = assay: cells; settings: Homo sapiens, 22Rv1, 24 h, read-out: INH
Description: Antiproliferative activity against human 22Rv1 cells assessed as inhibition rate at 10 uM incubated for 24 hrs by CCK8 assay relative to control

Androgen receptor [7] = molecular target: T2, Androgen receptor (Rattus norvegicus, UniProt P15207); assay: Binding affinity to GST/His-tagged recombinant rat androgen receptor (606 to 902 residues) ligand binding domain expressed in baculovirus expression system assessed as dissociation constant by Biolayer interferometric analysis
T2 sequence (P15207 whole entry): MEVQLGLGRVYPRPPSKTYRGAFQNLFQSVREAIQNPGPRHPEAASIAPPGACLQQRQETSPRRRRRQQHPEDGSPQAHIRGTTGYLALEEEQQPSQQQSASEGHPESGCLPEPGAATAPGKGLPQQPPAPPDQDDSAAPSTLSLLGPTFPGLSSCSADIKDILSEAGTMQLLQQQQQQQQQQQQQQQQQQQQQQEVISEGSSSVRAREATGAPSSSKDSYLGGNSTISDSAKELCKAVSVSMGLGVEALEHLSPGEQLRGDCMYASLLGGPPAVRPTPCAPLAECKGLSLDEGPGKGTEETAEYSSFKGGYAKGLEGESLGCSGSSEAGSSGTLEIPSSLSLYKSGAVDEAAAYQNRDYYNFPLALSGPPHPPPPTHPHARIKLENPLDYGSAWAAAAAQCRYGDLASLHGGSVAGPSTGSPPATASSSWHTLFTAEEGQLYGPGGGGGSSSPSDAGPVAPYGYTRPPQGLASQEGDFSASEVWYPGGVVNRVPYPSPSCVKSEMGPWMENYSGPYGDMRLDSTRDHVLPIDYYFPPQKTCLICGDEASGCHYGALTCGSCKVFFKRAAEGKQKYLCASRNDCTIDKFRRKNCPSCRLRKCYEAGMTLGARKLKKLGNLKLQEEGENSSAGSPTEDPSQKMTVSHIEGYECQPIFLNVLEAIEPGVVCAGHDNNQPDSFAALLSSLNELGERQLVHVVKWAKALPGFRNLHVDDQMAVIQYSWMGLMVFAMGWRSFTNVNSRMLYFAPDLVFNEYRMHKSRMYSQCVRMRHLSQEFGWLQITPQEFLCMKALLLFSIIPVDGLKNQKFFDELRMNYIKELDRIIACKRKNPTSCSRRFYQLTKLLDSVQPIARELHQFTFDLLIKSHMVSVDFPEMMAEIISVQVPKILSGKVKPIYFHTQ

| Structure (SMILES) | IC50 (Androgen receptor [1]) [nM] | IC50 (LNCaP [2]) [nM] | IC50 (CWR22R [3]) [nM] | IC50 (Androgen receptor [4]) [nM] | inhibition at 10 µM (LNCaP [5]) [%] | inhibition at 10 µM (CWR22R [6]) [%] | Kd (Androgen receptor [7]) [nM] |
| --- | --- | --- | --- | --- | --- | --- | --- |
| N#Cc1ccc(O[C@H]2CC[C@H](NC(=O)c3ccc(N4CCC(CN5CCN(c6ccc(NC7CN(CCCF)C7)cc6)CC5)CC4)nn3)CC2)cc1Cl | 6.81 | 6860 | 5120 | 394 | > 50 | > 50 | – |
| N#Cc1ccc(O[C@H]2CC[C@H](NC(=O)c3ccc(N4CCC(Cc5ccc(NCCCF)cc5)CC4)nn3)CC2)cc1Cl | – | – | – | – | < 10 | < 10 | – |
| N#Cc1ccc(O[C@H]2CC[C@H](NC(=O)c3ccc(N4CCC(CN5CCN(C6CN(CCCF)C6)CC5)CC4)nn3)CC2)cc1Cl | – | – | – | – | 17 | 29 | – |
| N#Cc1ccc(O[C@H]2CC[C@H](NC(=O)c3ccc(N4CCC(CC5CN(CCCF)C5)CC4)nn3)CC2)cc1Cl | 3.67 | – | – | – | 21 | < 10 | – |
| N#Cc1ccc(O[C@H]2CC[C@H](NC(=O)c3ccc(N4CCC(CN5CCN(c6ccc(/C=C/C(=O)O)cc6)CC5)CC4)nn3)CC2)cc1Cl | – | – | – | – | 36 | < 10 | – |
| N#Cc1ccc(O[C@H]2CC[C@H](NC(=O)c3ccc(N4CCC(CN5CCN(CCCC(F)(F)C(F)(F)F)CC5)CC4)nn3)CC2)cc1Cl | 12.4 | – | – | > 10000 | < 10 | < 10 | – |
| N#Cc1ccc(O[C@H]2CC[C@H](NC(=O)c3ccc(N4CCC(N5CC(CF)C5)CC4)nn3)CC2)cc1Cl | – | – | – | – | 15 | < 10 | – |
| N#Cc1ccc(O[C@H]2CC[C@H](NC(=O)c3ccc(N4CCC(CNC5CN(CCCF)C5)CC4)nn3)CC2)cc1Cl | 5.41 | – | – | > 10000 | 10 | < 10 | – |
| CCCNc1ccc(CC2CCN(c3ccc(C(=O)N[C@H]4CC[C@H](Oc5ccc(C#N)c(Cl)c5)CC4)nn3)CC2)cc1 | – | – | – | – | < 10 | < 10 | – |
| N#Cc1ccc(O[C@H]2CC[C@H](NC(=O)c3ccc(N4CCC(Cc5ccc(NC6CN(CCCF)C6)cc5)CC4)nn3)CC2)cc1Cl | – | – | – | – | – | – | 590 |
| N#Cc1ccc(O[C@H]2CC[C@H](NC(=O)c3ccc(-c4ccc(NCCCCCF)cc4)nn3)CC2)cc1Cl | – | – | – | – | < 10 | < 10 | – |
| N#Cc1ccc(O[C@H]2CC[C@H](NC(=O)c3cccnn3)CC2)cc1Cl | 1.52 | – | – | 60.8 | < 10 | < 10 | – |
| N#Cc1ccc(O[C@H]2CC[C@H](NC(=O)c3ccc(-c4ccc(NC5CN(CCCF)C5)cc4)nn3)CC2)cc1Cl | – | – | – | – | 13 | 28 | – |
| N#Cc1ccc(O[C@H]2CC[C@H](NC(=O)c3ccc(N4CCC(CN5CCN(CC[S+]([O-])CCCC(F)(F)C(F)(F)F)CC5)CC4)nn3)CC2)cc1Cl (stereo partly drawn) | – | – | – | – | 13 | < 10 | – |
